# According to US20100069366A1, “ANTIBACTERIAL QUINOLINE DERIVATIVES” (JANSSEN-CILAG, priority 2006, published 2010):
# How the values were obtained:
# [1] = test system: M. Smegmatis ATCC607; test: In-vitro anti-bacterial activity against strain M. smegmatis ATCC607; type: cell-based; conditions: 90% inhibitory concentration for bacterial growth, 48 hours, Alamar Blue fluorescence
# Method: Flat-bottom, sterile 96-well plastic microtiter plates were filled with 180 μl of sterile deionized water, supplemented with 0.25% BSA. Subsequently, stock solutions (7.8× final test concentration) of compounds were added in 45 μl volumes to a series of duplicate wells in column 2 so as to allow evaluation of their effects on bacterial growth. Serial five-fold dilutions (45 μl in 180 μl) were made directly in the microtiter plates from column 2 to 11 using a customised robot system (Zymark Corp., Hopkinton, Mass.). Pipette tips were changed after every 3 dilutions to minimize pipetting errors with high hydrophobic compounds. Untreated control samples with (column 1) and without (column 12) inoculum were included in each microtiter plate. Approximately 250 CFU per well of bacteria inoculum, in a volume of 100 μl in 2.8× Mueller-Hinton broth medium, was added to the rows A to H, except column 12. The same volume of broth medium without inoculum was added to column 12 in row A to H. The cultures were incubated at 37° C. for 48 hours in a humidified 5% CO2 atmosphere (incubator with open air valve and continuous ventilation). At the end of incubation, two days after inoculation, the bacterial growth was quantitated fluorometrically. Therefore Alamar Blue (10×) was added to all wells in a volume of 20 μl and plates were incubated for another 2 hours at […]
# The fluorescence was read in a computer-controlled fluorometer (Cytofluor, Biosearch) at an excitation wavelength of 530 nm and an emission wavelength of 590 nm (gain 30).
# [2] = test system: Streptococcus pneumoniae (ATCC6305); test: Microtitre plate assay, IC90 determination, SPN 6305; type: cell-based; conditions: Streptococcus pneumoniae ATCC6305, 90% inhibitory concentration for bacterial growth, resazurin
# Method: (§1) The bacteria used in this study were grown overnight in flasks containing 100 ml Mueller-Hinton Broth (Becton Dickinson—cat. no. 275730) in sterile de-ionized water, with shaking, at 37° C. Stocks (0.5 ml/tube) were stored at −70° C. until use. Bacteria titrations were performed in microtiter plates to detect the TCID50, in which the TCID50 represents the dilution that gives rise to bacterial growth in 50% of inoculated cultures.
# (§2) In general, an inoculum level of approximately 100 TCID50 was used for susceptibility testing.
# (§3) Flat-bottom, sterile 96-well plastic microtiter plates were filled with 180 μl of sterile deionized water, supplemented with 0.25% BSA. Subsequently, stock solutions (7.8× final test concentration) of compounds were added in 45 μl volumes in column 2 Serial five-fold dilutions (45 μl in […]) were made directly in the microtiter plates from column 2 to reach column 11. Untreated control samples with (column 1) and without (column 12) inoculum were included in each microtiter plate. Depending on the bacteria type, approximately 10 to 60 CFU per well of bacteria inoculum (100 TCID50), in a volume of 100 μl in 2.8× Mueller-Hinton broth medium, was added to the rows A to H, except column 12. The same volume of broth medium without inoculum was added to column 12 in row A to H. The cultures were incubated at 37° C. for 24 hours under a normal atmosphere (incubator with open air valve and continuous ventilation). At the end of incubation, one day after inoculation, the bacterial growth was quantitated fluorometrically. Therefore resazurin (0.6 mg/ml) was added in a volume of 20 μl to all wells 3 hours after inoculation, and the plates were re-incubated overnight. A change in colour from blue to pink indicated the growth of bacteria. The fluorescence was read in a computer-controlled fluorometer (Cytofluor Biosearch) at an excitation wavelength of 530 nm and an emission wavelength of 590 nm. The % growth inhibition achieved by the compounds was calculated according to standard methods.
# [3] = test system: Staphylococcus aureus (ATCC29213); test: Microtitre plate assay, IC90 determination, STA 29213; type: cell-based; conditions: Staphylococcus aureus ATCC29213, 90% inhibitory concentration for bacterial growth, resazurin
# Method: as §1, §2, §3
# [4] = test system: methicilline resistant Staphylococcus aureus (MRSA) (a clinical isolate from the University of Antwerp); test: Microtitre plate assay, IC90 determination, STA RMETH; type: cell-based; conditions: 90% inhibitory concentration for bacterial growth, resazurin
# Method: as §1, §2, §3
# [5] = test system: Staphylococcus aureus (ATCC25923); test: Microtitre plate assay, IC90 determination, STA 25923; type: cell-based; conditions: Staphylococcus aureus ATCC25923; 90% inhibitory concentration for bacterial growth; resazurin
# Method: as §1, §2, §3
# [6] = test system: Pseudomonas aeruginosa (ATCC27853); test: Microtitre plate assay, IC90 determination, PAE 27853; type: cell-based; conditions: Pseudomonas aeruginosa ATCC27853; 90% inhibitory concentration for bacterial growth; resazurin
# Method: as §1, §2, §3
# [7] = test system: Enterococcus faecalis (ATCC29212); test: Microtitre plate assay, IC90 determination, EFA 29212; type: cell-based; conditions: Enterococcus faecalis ATCC29212; 90% inhibitory concentration for bacterial growth; resazurin
# Method: as §1, §2, §3
# [8] = test system: Streptococcus pyogens (ATCC8668); test: Microtitre plate assay, IC90 determination, SPY 8668; type: cell-based; conditions: Streptococcus pyogens ATCC8668; 90% inhibitory concentration for bacterial growth; resazurin
# Method: as §1, §2, §3
Compound,"IC90 ([1]; Mycolicibacterium smegmatis, ATCC607, read-out: M. smegmatis IC90) [µg/mL]",IC90 ([2]; read-out: IC90 (μg/ml) SPN 6305) [µg/mL],melting point [°C],IC90 ([3]; read-out: IC90 (μg/ml) STA 29213) [µg/mL],IC90 (μg/ml) STA RMETH [4] [µg/mL],M. smegmatis IC90 [1] [µg/mL],IC90 (μg/ml) SPN 6305 [2] [µg/mL],IC90 (μg/ml) STA 29213 [3] [µg/mL],IC90 (μg/ml) STA 25923 [5] [µg/mL],IC90 (μg/ml) PAE 27853 [6] [µg/mL],IC90 (μg/ml) EFA 29212 [7] [µg/mL],IC90 (μg/ml) SPY 8668 [8] [µg/mL]
COc1nc2ccc(Br)cc2cc1C(/C(=C/CN(C)C)CCc1ccccc1)c1ccccc1 (stereo not drawn) [Compound 8],1.63,2.05,128,8.17,,,,,,,,
COc1nc2ccc(Br)cc2cc1C(=C(CCN(C)C)c1ccccc1)c1ccccc1 [Compound 36],,,,,12.24,1.94,5.47,9.73,10.91,12.24,12.24,9.73
